According to ChEMBL document CHEMBL1146998, “Cespitulactones A and B, new diterpenoids from Cespitularia taeniata” (Bioorg Med Chem Lett, 2006):
In brackets after ≈: the same amount, converted by molar mass.

Tests used:
Type in all cases: functional, cell-based
Daoy = test: Cytotoxicity against human Daoy cell line by MTT assay
WiDr = test: Cytotoxicity against human WiDr cell line by MTT assay
HeLa = test: Cytotoxicity against human HeLa cell line by MTT assay
DLD-1 = test: Cytotoxicity against human DLD1 cell line by MTT assay

SMILES: C=C1CC[C@@H]2CC[C@H](OC(=O)C/C(C)=C/[C@@H](OC(=O)c3ccccc3)C1)C(=O)C2(C)C
- IC50 (Daoy): > 20 µg/mL
- IC50 (WiDr): > 20 µg/mL

SMILES: C=C1CC[C@@H]2CC[C@H](OC(=O)C/C(C)=C/[C@@H](OC(=O)c3ccc(Cl)cc3)C1)C(=O)C2(C)C
- IC50 (Daoy): > 20 µg/mL
- IC50 (WiDr): > 20 µg/mL

SMILES: CC(=O)O[C@@H]1/C(C(C)C)=C\C=C(/C)CC/C=C(\C)CC[C@@H]2O[C@@]2(C)[C@H]1OC(C)=O
- IC50 (Daoy): 16.9 µg/mL (≈ 41.8 µM)
- IC50 (WiDr): 13.8 µg/mL (≈ 34.1 µM)

SMILES: C=C1CC[C@@H]2CC[C@H](OC(=O)C/C(C)=C/[C@@H](OC(C)=O)C1)C(=O)C2(C)C [CESPITULACTONE A MONOACETATE]
- IC50 (Daoy): > 20 µg/mL
- IC50 (WiDr): > 20 µg/mL

SMILES: C=C1CC[C@@H]2CC[C@H](OC(=O)C/C(C)=C/[C@@H](O)C1)C(=O)C2(C)C [CESPITULACTONE A]
- IC50 (HeLa): 3.69 µg/mL (≈ 11.5 µM)
- IC50 (DLD-1): 9.98 µg/mL (≈ 31.1 µM)
- IC50 (Daoy): > 20 µg/mL
- IC50 (WiDr): > 20 µg/mL

SMILES: C=C1CC[C@@H]2CCC3=C(C2(C)C)[C@@](OC)(C/C(C)=C/[C@@H](O)C1)OC3=O [CESPITULACTONE B]
- IC50 (Daoy): > 20 µg/mL
- IC50 (WiDr): > 20 µg/mL

SMILES: C=C1CC[C@@H]2CCC3=C(C2(C)C)[C@@](O)(C/C(C)=C/[C@@H](O)C1)OC3=O [CESPITULARIN D]
- IC50 (Daoy): > 20 µg/mL
- IC50 (WiDr): > 20 µg/mL

SMILES: C=C1CC[C@@H]2CCC3=C(C(=O)[C@@H](/C(C)=C/C(O)C1)[C@H]3O)C2(C)C (stereo not given in full) [CESPITULARIN F]
- IC50 (Daoy): > 20 µg/mL
- IC50 (WiDr): > 20 µg/mL

SMILES: C=C1CC[C@@H]2CCC3=C(C(=O)[C@@H](/C(C)=C/[C@@H](OC(C)=O)C1)[C@H]3O)C2(C)C [CESPITULARIN J]
- IC50 (Daoy): > 20 µg/mL
- IC50 (WiDr): > 20 µg/mL
